Test results from the NIST ThermoML archive (doi:10.1021/je101361u).

Assay: xn = mol fraction of the nth substance listed
Settings: 101.3 kPa, Liquid, Vibrating tube method

COCCOCCOC [2,5,8-trioxanonane] + ClCCCl
mass density [kg/m3]
Settings	308.15 K	313.15 K	318.15 K	323.15 K	328.15 K	333.15 K
x2 = 0.0252	–	928.2	923.14	918.07	912.99	907.88
x2 = 0.0508	–	932.81	927.72	922.62	917.5	912.36
x2 = 0.0751	–	937.26	932.15	927.01	921.85	916.68
x2 = 0.1	–	941.89	936.74	931.58	926.39	921.19
x2 = 0.1502	–	951.65	946.43	941.2	935.95	930.67
x2 = 0.1999	–	961.71	956.42	951.12	945.79	940.45
x2 = 0.25	–	972.4	967.04	961.66	956.26	950.83
x2 = 0.3002	–	983.61	978.16	972.68	967.18	961.67
x2 = 0.3501	–	995.21	989.69	984.14	978.56	972.96
x2 = 0.4	1013.05	1007.46	1001.83	996.19	990.53	984.84
x2 = 0.45	1025.99	1020.29	1014.56	1008.81	1003.05	997.27
x2 = 0.5003	1039.78	1033.98	1028.16	1022.31	1016.44	1010.54
x2 = 0.5499	1054.03	1048.12	1042.19	1036.25	1030.26	1024.25
x2 = 0.5999	1069.2	1063.17	1057.13	1051.05	1044.95	1038.81
x2 = 0.6501	1085.36	1079.21	1073.04	1066.84	1060.6	1054.34
x2 = 0.7	1102.36	1096.08	1089.77	1083.44	1077.08	1070.67
x2 = 0.75	1120.21	1113.78	1107.32	1100.83	1094.32	1087.77
x2 = 0.8	1139.52	1132.93	1126.31	1119.65	1112.98	1106.28
x2 = 0.8499	1159.94	1153.19	1146.4	1139.57	1132.71	1125.84
x2 = 0.9	1181.94	1175	1168.02	1160.99	1153.95	1146.89
x2 = 0.925	1193.47	1186.42	1179.34	1172.21	1165.08	1157.9
x2 = 0.9494	1205.37	1198.22	1191.02	1183.78	1176.54	1169.26
x2 = 0.975	1218.05	1210.78	–	–	–	–
